In ChEMBL document CHEMBL1144119, “1',2',3',4'-tetradehydrotubulosine, a cytotoxic alkaloid from Pogonopus speciosus” (1999):
Converted amounts (≈) assume the structure as drawn.

Assays:
Type in all cases: functional
[1] = Cytotoxicity against human BC1 cells; settings: read-out: ED50 (the source's name)
[2] = test system: Lu1; experiment: Cytotoxicity against human Lu1 cells; settings: read-out: ED50 (the source's name)
[3] = test system: Col2; experiment: Cytotoxicity against human Col2 cells; settings: read-out: ED50 (the source's name)
[4] = test system: KB; experiment: Cytotoxicity against human KB cells; settings: read-out: ED50 (the source's name)
[5] = test system: KB; experiment: Cytotoxicity against human multidrug resistant KB cells in presence of vinblastine; settings: read-out: ED50 (the source's name)
[6] = test system: KB; experiment: Cytotoxicity against human multidrug resistant KB cells in absence of vinblastine; settings: read-out: ED50 (the source's name)
[7] = test system: LNCaP; experiment: Cytotoxicity against human LNCAP cells; settings: read-out: ED50 (the source's name)
[8] = test system: SW626; experiment: Cytotoxicity against human SW626 cells; settings: read-out: ED50 (the source's name)
[9] = test system: SK-N-SH; experiment: Cytotoxicity against human SK-N-SH cells; settings: read-out: ED50 (the source's name)
[10] = test system: M109; experiment: Cytotoxicity against mouse M109 cells; settings: read-out: ED50 (the source's name)
[11] = test system: L1210; experiment: In vivo antitumor activity against mouse L1210 cells assessed as increase in life span at 2 mg/kg
[12] = test system: P388; experiment: In vivo antitumor activity against mouse P388 cells assessed as increase in life span at 2 mg/kg

Which EC50 [1] does the source give for CC[C@H]1CN2CCc3cc(OC)c(OC)cc3[C@@H]2C[C@@H]1Cc1nccc2c1[nH]c1ccc(O)cc12 here?
Its EC50 is 3.9 µg/mL (≈ 8.27 µM).

And the EC50 [2]?
Its EC50 is 3.6 µg/mL (≈ 7.63 µM).

And the EC50 [3]?
The EC50 was 2.8 µg/mL (≈ 5.94 µM).

And the EC50 [4]?
Its EC50 is 2.2 µg/mL (≈ 4.66 µM).

And the EC50 [5]?
The EC50 was 9 µg/mL.

What about the EC50 [6] of the same compound?
The EC50 was 8.8 µg/mL (≈ 18.7 µM).

And the EC50 [7]?
Its EC50 is 6.8 µg/mL (≈ 14.4 µM).

What about the EC50 [8] of the same compound?
The EC50 was 6.1 µg/mL (≈ 12.9 µM).

And the EC50 [9]?
The EC50 was 4 µg/mL (≈ 8.48 µM).

And the EC50 [10]?
Its EC50 is 4.4 µg/mL (≈ 9.33 µM).

Which results are given for CC[C@H]1CN2CCc3cc(OC)c(OC)cc3[C@@H]2C[C@@H]1CC1=NCCc2cc(O)c(OC)cc21 [PSYCHOTRINE]?
EC50 [1]: 3.4 µg/mL (≈ 7.32 µM); EC50 [2]: 5.7 µg/mL (≈ 12.3 µM); EC50 [3]: 4.5 µg/mL (≈ 9.69 µM); EC50 [4]: 2.8 µg/mL (≈ 6.03 µM); EC50 [5]: 9 µg/mL; EC50 [6]: 9.4 µg/mL (≈ 20.2 µM); EC50 [7]: 2.3 µg/mL (≈ 4.95 µM); EC50 [8]: 13.3 µg/mL (≈ 28.6 µM); EC50 [9]: 4 µg/mL (≈ 8.61 µM); EC50 [10]: 9 µg/mL (≈ 19.4 µM)

Which Activity [11] does the source give for CC[C@H]1CN2CCc3cc(OC)c(OC)cc3[C@@H]2C[C@@H]1C[C@H]1NCCc2c1[nH]c1ccc(O)cc21 [TUBULOSINE] here?
Its Activity is 30%.

And the Activity [12]?
Its Activity is 80%.

What about the EC50 [1] of the same compound?
The EC50 was 0.1 µg/mL (≈ 0.21 µM).

What about the EC50 [2] of the same compound?
Its EC50 is < 0.001 µg/mL.

And the EC50 [3]?
Its EC50 is 0.05 µg/mL (≈ 0.105 µM).

What about the EC50 [4] of the same compound?
Its EC50 is < 0.16 µg/mL.

What about the EC50 [5] of the same compound?
The EC50 was 0.1 µg/mL.

What about the EC50 [6] of the same compound?
The EC50 was 0.1 µg/mL (≈ 0.21 µM).

And the EC50 [7]?
The EC50 was < 0.16 µg/mL.

What about the EC50 [8] of the same compound?
Its EC50 is 0.22 µg/mL (≈ 0.463 µM).

What about the EC50 [9] of the same compound?
The EC50 was 0.1 µg/mL (≈ 0.21 µM).

And the EC50 [10]?
The EC50 was 0.1 µg/mL (≈ 0.21 µM).
